{"source": "patent US20030059511A1", "about": "“Sweetener compositions and uses thereof” (AJINOMOTO CO., INC., priority 1999, published 2003)", "key": {"[1]": {"experiment": "Taste characteristics in a cola drink (9 items, similarity index vs cola drink containing 10% sucrose)", "assay_type": "in vivo, human", "conditions": "non-carbonated cola drink, PSE 10%, vs cola drink with 10% sucrose; smaller = closer to sucrose; 8 panelists", "procedure": "The following experiments were performed in the same way as that of Example 2. Instead of aqueous solution, the cola drink of each of derivatives 1 to 9 having a sweetness level equivalent to that of PSE 10% was prepared, and compared with the cola drink containing 10% sucrose. The evaluation method and so on were same as that of Example 2.\nWhen carbon dioxide is blown in the cola drink, the carbonated cola drink is prepared, however, the taste of the cola drink can be compared more easily in that without carbon dioxide. Thus the sensory evaluation of non-carbonated cola drink was performed.\nThe composition of the cola drink employed was same as that of Example 1.\nThe similarity indexes were calculated as those of aqueous solutions. The smaller the similarity index becomes, the better the taste balances, and the closer the taste is to the taste characteristics (quality) of sucrose. The total taste becomes preferable. The similarity indexes of each derivatives are shown as follows. […]\nThe following experiments were conducted in the same way as that of Example 15. Instead of aqueous solution, the cola drink of each of derivatives 1 to 9 having a sweetness level equivalent to that of PSE 10% was prepared, and compared with the cola drink containing 10% sucrose. All of the evaluation method and so on were same as those of Example 15.\nWhen carbon dioxide is blown in the cola drink, the carbonated cola drink is prepared, however, the taste of the cola drink can be compared more easily in that without carbon dioxide. Thus the non-carbonated cola drink was organoleptically evaluated.\nThe composition of the cola drink employed was same as that of Example 14.\nThe similarity indexes were calculated as those of aqueous solutions. The smaller the similarity index becomes, the better the taste balances, and the closer the taste is to the taste characteristics (quality)of sucrose. The total taste becomes preferable. The similarity indexes of each of the derivatives are shown as follows. […]"}, "[2]": {"conditions": "cited from earlier work; for magnification used for the sweetness intensity of the another sweetener with a high intense sweetness: values used for calculation in Example 5; for sweetness intensity, times that of sucrose by weight: reported in JP-A-8-503206 / JP-B-47-31031; for magnification of sweetness intensity (numerical values in brackets): values used for calculation in Example 17, sucrose = 1"}, "[3]": {"experiment": "Equations for calculating sweetness intensity and values calculated from them", "assay_type": "in vivo, human", "conditions": "for magnification of sweetness intensity at PSE 0.5%: sweetener for tabletop use", "source_text": "For example, when preparing a solution having a intensity of sweetness equivalent to that of 10% sucrose, wherein 80% of the 10% of intensity of sweetness is from the sweetener component A and the residual 20% is from the sweetener component B, the sweetness ratio is A:B=8:2. When the sweetening magnification relative to sucrose varies depending on the composition and the concentration of the sweetener component is varied even if it is a same sweetener component (in this case, an exponential curve can be prepared and used for calculation), the objective weight of the sweetener component can be calculated. For example, if the equation for converting sweetness intensity (the exponential curve) component A is Y=aX^b, and the equation for converting sweetness intensity (the exponential curve)of component B is Y=cX^d, the weight ratio of the components A and B in the ratio A:B=8:2, can be determined using the following calculation, where Y is a concentration equivalent to that of sucrose (PSE %), and X is the sweetener component concentration (g/100 ml):\nEquations for calculating sweetness intensity in the cola drink (pH 2.8, 20° C.) are as follows, wherein Y denotes the concentration equivalent to that of sucrose (g/100 ml) and X denotes the concentration of the sweetener (g/100 ml), respectively.\nWith regard to Acesulfame K, the magnification of sweetness intensity was determined according to the following equation for calculating sweetness intensity.\n[Y: concentration equivalent to that of sucrose (g/100ml); X: concentration of Acesulfame K (g/100 ml)]\nBy using the equation for calculating sweetness intensity in the cola drink (refer to Example 4) and the equation for calculating sweetness intensity of Aspartame (refer to the monthly Journal “Food Chemical” August, page 35, 1997), the necessary amounts of those were calculated. In case of Aspartame, the values at 20° C., pH2.8 were used.\nThe equation for calculating sweetness intensity of derivative 1 in the aqueous solution is as follows.\nWhere, the calculation of the sweetness was made by using the equation for calculating sweetness intensity of derivative 4 Y=58775X^1.04. When Y=6.3%, X=0.00015 g/100 ml, When Y=5.1%, X=0.00012 g/100 ml.\nExamples for equations for calculating sweetness intensity in the cola drink (pH2.8, 20° C.) are as follows, and another equations can be prepared in the same manner, wherein Y denotes the concentration equivalent to that of sucrose (g/100 ml) and X denotes the concentration of the sweetener (g/100 ml), respectively."}}, "note": "Where a SMILES comes first, the peptide text is derived from it.", "data": [{"molecule": "CC1=CC(=O)[N-]S(=O)(=O)O1.[K+]", "note": "[Acesulfame K, reference compound]", "values": [{"measurement": "Similarity index", "setting": "[1]", "value": "~2.0"}]}, {"molecule": "C[C@@H](NC(=O)[C@@H](N)CC(=O)O)C(=O)NC1C(C)(C)SC1(C)C", "note": "[Alitame]", "values": [{"measurement": "magnification used for the sweetness intensity of the another sweetener with a high intense sweetness", "setting": "[2]", "value": 2000, "unit": "times"}]}, {"molecule": "COC(=O)[C@H](Cc1ccccc1)NC(=O)[C@@H](N)CC(=O)O", "note": "[Aspartame, reference compound] (H-Asp-Phe-OMe)", "values": [{"measurement": "sweetness intensity, times that of sucrose by weight", "setting": "[2]", "value": 200, "unit": "times"}, {"measurement": "X, concentration of the sweetener when Y=0.5", "setting": "[3]; 20° C., pH 2.8", "value": 0.00072, "unit": "g/100 ml"}, {"measurement": "X, concentration of the sweetener when Y=9", "setting": "[3]; 20° C., pH 2.8", "value": 0.04726, "unit": "g/100 ml"}, {"measurement": "magnification of the sweetness intensity at PSE 5%", "setting": "[3]; calculated, block ice of Example 12", "value": 130, "unit": "times"}, {"measurement": "magnification of sweetness intensity at PSE 0.5%", "setting": "[3]; calculated", "value": 360, "unit": "times"}, {"measurement": "X, concentration of the sweetener when Y=2", "setting": "[3]; cola drink, pH 2.8, 20° C.", "value": 0.0053, "unit": "g/100 ml"}, {"measurement": "X, concentration of the sweetener when Y=5", "setting": "[3]; cola drink, pH 2.8, 20° C.", "value": 0.0202, "unit": "g/100 ml"}, {"measurement": "X, concentration of the sweetener when Y=8", "setting": "[3]; cola drink, pH 2.8, 20° C.", "value": 0.0398, "unit": "g/100 ml"}]}, {"molecule": "O=C[C@H](O)[C@@H](O)[C@H](O)CO", "note": "[D-xylose]", "values": [{"measurement": "magnification of sweetness intensity (numerical values in brackets)", "setting": "[2]", "value": 0.4}]}, {"molecule": "OC[C@@H](O)[C@@H](O)CO", "note": "[Erythritol, reference compound]", "values": [{"measurement": "magnification of sweetness intensity (numerical values in brackets)", "setting": "[2]", "value": 0.75}, {"measurement": "magnification of sweetness intensity at PSE 0.5%", "setting": "[3]; calculated", "value": 0.75, "unit": "times"}]}, {"molecule": "COC(=O)[C@H](Cc1ccccc1)NC(=O)[C@H](CC(=O)O)NCCC(C)(C)C", "note": "[Neotame]", "values": [{"measurement": "sweetness intensity, times that of sucrose by weight", "setting": "[2]", "value": 10000, "unit": "times"}]}, {"molecule": "O=C1NS(=O)(=O)c2ccccc21", "note": "[Saccharine]", "values": [{"measurement": "magnification used for the sweetness intensity of the another sweetener with a high intense sweetness", "setting": "[2]", "value": 190, "unit": "times"}]}, {"molecule": "O=C1NS(=O)(=O)c2ccccc21.[Na]", "note": "[Sodium Saccharine]", "values": [{"measurement": "magnification used for the sweetness intensity of the another sweetener with a high intense sweetness", "setting": "[2]", "value": 190, "unit": "times"}]}, {"molecule": "C=C1C[C@@]23CC[C@H]4[C@@](C)(CCC[C@@]4(C)C(=O)O[C@@H]4O[C@H](CO)[C@@H](O)[C@H](O)[C@H]4O)[C@@H]2CC[C@]1(O[C@@H]1O[C@H](CO)[C@@H](O)[C@H](O)[C@H]1O[C@@H]1O[C@H](CO)[C@@H](O)[C@H](O)[C@H]1O)C3", "note": "[Stevioside]", "values": [{"measurement": "magnification used for the sweetness intensity of the another sweetener with a high intense sweetness", "setting": "[2]", "value": 140, "unit": "times"}]}, {"molecule": "CC1(C)[C@@H](O[C@H]2O[C@H](C(=O)[O-])[C@@H](O)[C@H](O)[C@H]2O[C@@H]2O[C@H](C(=O)O)[C@@H](O)[C@H](O)[C@H]2O)CC[C@]2(C)[C@H]3C(=O)C=C4[C@@H]5C[C@@](C)(C(=O)[O-])CC[C@]5(C)CC[C@@]4(C)[C@]3(C)CC[C@@H]12.[Na+].[Na+]", "note": "[disodium glycyrrhizinate]", "values": [{"measurement": "magnification used for the sweetness intensity of the another sweetener with a high intense sweetness", "setting": "[2]", "value": 100, "unit": "times"}]}, {"molecule": "O=C(CO)[C@@H](O)[C@H](O)[C@H](O)CO", "note": "[fructose]", "values": [{"measurement": "magnification of sweetness intensity (numerical values in brackets)", "setting": "[2]", "value": 1.4}]}, {"molecule": "OC[C@@H](O)[C@@H](O[C@@H]1O[C@H](CO)[C@H](O)[C@H](O)[C@H]1O)[C@H](O)[C@@H](O)CO", "note": "[lactitol]", "values": [{"measurement": "magnification of sweetness intensity (numerical values in brackets)", "setting": "[2]", "value": 0.35}]}, {"molecule": "OC[C@H]1O[C@@H](O[C@H]2[C@H](O)[C@@H](O)C(O)O[C@@H]2CO)[C@H](O)[C@@H](O)[C@H]1O", "note": "(stereo partly drawn) [lactose]", "values": [{"measurement": "magnification of sweetness intensity (numerical values in brackets)", "setting": "[2]", "value": 0.2}]}, {"molecule": "OC[C@H]1O[C@H](O[C@H]2[C@H](O)[C@@H](O)[C@H](O)O[C@@H]2CO)[C@H](O)[C@@H](O)[C@@H]1O", "note": "[malt sugar]", "values": [{"measurement": "magnification of sweetness intensity (numerical values in brackets)", "setting": "[2]", "value": 0.3}]}, {"molecule": "OC[C@@H](O)[C@@H](O[C@H]1O[C@H](CO)[C@@H](O)[C@H](O)[C@H]1O)[C@H](O)[C@@H](O)CO", "note": "[maltitol]", "values": [{"measurement": "magnification of sweetness intensity (numerical values in brackets)", "setting": "[2]", "value": 0.75}]}, {"molecule": "OC[C@@H](O)[C@@H](O)[C@H](O)[C@H](O)CO", "note": "[mannitol]", "values": [{"measurement": "magnification of sweetness intensity (numerical values in brackets)", "setting": "[2]", "value": 0.6}]}, {"molecule": "OC[C@H]1O[C@H](OC[C@H]2OC(O)(CO)[C@@H](O)[C@@H]2O)[C@H](O)[C@@H](O)[C@@H]1O", "note": "(stereo partly drawn) [paratinose]", "values": [{"measurement": "magnification of sweetness intensity (numerical values in brackets)", "setting": "[2]", "value": 0.4}]}, {"molecule": "O=S(=O)([O-])NC1CCCCC1.[Na+]", "note": "[sodium cyclamate]", "values": [{"measurement": "magnification used for the sweetness intensity of the another sweetener with a high intense sweetness", "setting": "[2]", "value": 30, "unit": "times"}]}, {"molecule": "OC[C@@H](O)[C@@H](O)[C@H](O)[C@@H](O)CO", "note": "[sorbitol]", "values": [{"measurement": "magnification of sweetness intensity (numerical values in brackets)", "setting": "[2]", "value": 0.75}]}, {"molecule": "OC[C@H]1O[C@H](O[C@]2(CCl)O[C@H](CCl)[C@@H](O)[C@@H]2O)[C@H](O)[C@@H](O)[C@H]1Cl", "note": "[suclarose]", "values": [{"measurement": "magnification used for the sweetness intensity of the another sweetener with a high intense sweetness", "setting": "[2]", "value": 400, "unit": "times"}]}, {"molecule": "OC[C@H]1O[C@H](O[C@H]2O[C@H](CO)[C@@H](O)[C@H](O)[C@H]2O)[C@H](O)[C@@H](O)[C@@H]1O", "note": "[trehalose]", "values": [{"measurement": "magnification of sweetness intensity (numerical values in brackets)", "setting": "[2]", "value": 0.45}]}, {"molecule": "OC[C@@H](O)[C@H](O)[C@@H](O)CO", "note": "[xylitol]", "values": [{"measurement": "magnification of sweetness intensity (numerical values in brackets)", "setting": "[2]", "value": 1}]}, {"molecule": "Thaumatin", "values": [{"measurement": "magnification used for the sweetness intensity of the another sweetener with a high intense sweetness", "setting": "[2]", "value": 850, "unit": "times"}]}, {"molecule": "isomerized lactose", "values": [{"measurement": "magnification of sweetness intensity (numerical values in brackets)", "setting": "[2]", "value": 0.6}]}, {"molecule": "paratinit", "values": [{"measurement": "magnification of sweetness intensity (numerical values in brackets)", "setting": "[2]", "value": 0.45}]}]}
